Experimental data taken from patent publication US12448383B2, “Compounds and methods for treatment of viral infections” (priority 2022, dated 2025).

How the values were obtained:
[1] = test system: Respiratory syncytial virus recombinant with luciferase (RSV-Luc5) in HEp-2 cells; assay: microbe, parasite or virus in culture; assay type: cell-based; conditions: human respiratory syncytial virus, HEp-2, 72 h, read-out: RSV Hep2 EC50
[2] = test system: Respiratory syncytial virus recombinant with luciferase (RSV-Luc5) in Normal Human Bronchial Epithelial (NHBE) cells; assay: microbe, parasite or virus in culture; assay type: cell-based; conditions: 72 h, read-out: RSV NHBE EC50
[3] = test system: SARS Coronavirus 2 recombinant with NanoLuc (SARS-CoV2-NLuc) in A549-hACE2 cells; assay: organism not typed; assay type: cell-based; conditions: 48 h; read-out: SARS-CoV2 EC50
Plasma stability = assay type: in vitro ADME; design: unit not given here; conditions: 37° C., 2 μM substrate
In short: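 Reaction mixture was sampled at 0.05, 0.5, 1, 2, 3 and 4 hr into quench solution containing internal standard, then centrifuged and diluted with water. Remaining analyte was measured by LC-MS on a Q-Exactive using a formic acid/acetonitrile gradient, with 5 ppm mass tolerance.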

GI S9 stability = assay type: in vitro ADME; conditions: human, s9, pH 7.4
Protocol: Example G: GI S9 Stability
Duplicate aliquots of test compound or positive control substrate (GS-7340) were added to S9 stock diluted with 100 mM phosphate buffered saline, pH 7.4, to obtain a protein concentration of 1.0 mg/mL. The S9 metabolic reactions were initiated by the addition of the substrates to the S9 reaction mixture to a final concentration of 2 μM. At 0, 10, 20, 30, 60 and 120 min, […] aliquots of the reaction mixture were transferred to plates containing […] of IS/Q solution. After quenching, the plates were centrifuged at 3000 g for 30 minutes, and 150 μL aliquots of each supernatant were diluted with 150 μL water. Aliquots ([…]) of the diluted supernatant were analyzed on a Thermo Q-Exactive mass spectrometer as described below. GI S9 Stability—No phenylmethylsulfonyl fluoride (PMSF): Similar to the procedure described above, test compounds were incubated at 2 μM with 1 mg/mL PMSF-free Intestinal S9 fractions. Samples are removed at 6 time points over the course of a 120 min experiment and the parent compound disappreance and reference compound A formation is determined by mass spectrometry.
Example K: Liquid Chromatography/Mass Spectroscopy Methods for S9 and Plasma Stability
Quantification of test compounds, Reference Compound A (S9 stability assay nucleoside metabolite), and controls was performed by analyte/internal standard peak area ratio (PAR) values measured on a Thermo Q-Exactive mass spectrometer coupled to a Dionex UltiMate 3000 HPLC with a Leap Technologies HTC PAL autosampler. The column used for analysis of test compounds and Reference Compound A was a Waters Acquity BEH C18 ([…] particle size, 2.1′50 mm). The column used for control (GS-7340) was a Thermo Hypersil GOLD ([…] particle size, 2.1′50 mm). Mobile phase A consisted of 0.1% (v/v) formic acid in water. Mobile phase B consisted of 0.1% (v/v) formic acid in acetonitrile. Elution of analytes was achieved by a series of linear gradients of acetonitrile in water containing 0.1°(v/v) formic acid. The mass spectrometer was calibrated on a weekly basis and mass tolerance of 5 ppm was used.

[4] = CC50 MT4 cytotoxicity (Cell-Titer Glo); assay type: cell-based; conditions: human
In short: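 Uninfected MT-4 and HEp-2 cells cultured 4-5 days at 37° C with 3-fold serially diluted compound (15 nM to 100,000 nM). Viability read by Cell-Titer Glo luminescence; untreated and 2 μM puromycin wells set 100% and 0%. CC50 from non-linear regression as concentration reducing viability by 50%.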

[5] = test system: Caco-2 cells (clone C2BBe1); assay: CACO-2 permeability; assay type: in vitro ADME; design: unit not given here; conditions: for DM Caco2 A to B: apical to basolateral, donor pH 6.5, receiver pH 7.4; for DM Caco2 B to A: basolateral to apical
In short: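 Caco-2 monolayers grown 21 days on collagen-coated transwells and checked for integrity by TEER. Donor buffer was HBSS/HEPES/glucose pH 6.5 with 200 μM BNPP; receiver was pH 7.4 with BSA. Compounds were dosed apically or basolaterally for A-to-B and B-to-A transport, with receiver sampling at 1 and 2 h, LC-MS/MS analysis and percent recovery.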

[6] = Stability in pH2 buffered solution; assay type: physicochemical; conditions: pH2 phosphate buffer, 40° C., 24 h; Table N2
In short: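 Compounds diluted from 1 mg/mL acetonitrile stock to 50 μg/mL in 50 mM phosphate buffer with 150 mM NaCl at pH2 or pH7, held at 40° C. for 24 hrs. UPLC sampling at 0, 3, 6, 9, 12 hrs, plus 24 hrs from oven-stored duplicate; reported as % area normalized of compound peak.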

[7] = Stability in pH7 buffered solution; assay type: physicochemical; conditions: pH7 phosphate buffer, 40° C., Table N2
Protocol: Example N: Stability in p112 and p117 Buffered Solutions
The aqueous stability of compounds over a time of 24 hours at 40° C. was assessed. Stability was determined in 50 mM phosphate buffered solutions at both pH2 and pH7, with 150 mM NaCl (to achieve isotonicity). 3-5 mg of solid compounds were added to 7 mL scintillation vials. Acetonitrile was added to each vial to produce a 1 mg/mL stock solution. Stock solutions were diluted to 50 μg/mL in either pH2 or pH7 phosphate buffer, to a volume of 1 mL. For each compound and pH condition, 50 μg/mL samples were prepped in duplicate. One sample was placed on the UPLC tray at 40° C. for analysis, and the second sample was placed in a 40° C. oven for storage. Sample preps for each compound were offset by 40 minutes to account for run time on UPLC.
Concentration timepoints were measured at 0, 3, 6, 9, and 12 hrs. After 24 hrs, samples in the 40° C. oven were removed and analyzed by UPLC.
In FIG. 2, % AN stands for % area normalized. That is, % AN is the area of the compound peak relative to the sum of areas of all the peaks in the UPLC chromatogram. For example, if there were two peaks, compound peak with an area of 9 and another peak with an area of 1, then the % AN of the compound peak would be 90%.

[8] = Thermodynamic solubility in pH7 buffered solution; conditions: 50 mM phosphate buffer pH7, 150 mM NaCl, ambient temperature, 24 hours
Protocol: Solubility was determined at ambient temperature in a 50 mM phosphate buffered pH7 solution with 150 mM NaCl (to achieve isotonicity). Solids were added to the buffered solution in 1.5-mL Eppendorf tubes, vortexed for 1 minute, then agitated for 24 hours in an Eppendorf ThermoMixer C. […] Supernatants were diluted to a volume of 1 mL with 30:70 v/v acetonitrile:water. All diluted supernatants were analyzed by UPLC using a Waters Acquity UPLC with a PDA UV detector.

[9] = GI S9 stability - no PMSF; assay type: in vitro ADME; conditions: pH 7.4; human intestinal S9, PMSF-free; read-out: GIS9-HUMAN-NoPMSF T1/2
In short: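 Compounds were incubated at 2 μM with PMSF-free intestinal S9 (1 mg/mL protein) in 100 mM PBS, pH 7.4, sampling at 6 time points over 120 min. Parent disappearance and formation of the nucleoside metabolite Reference Compound A were quantified by LC-MS (Q-Exactive) using analyte/internal standard peak area ratios.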

SMILES | EC50 [1] | EC50 [2] | EC50 [3] | STA Human Plasma 37 (Plasma stability) | half-life at 2 µM (GI S9 stability) | CC50 [4] | DM Caco2 A to B [5] | DM Caco2 B to A [5] | pH 2 Stability 24 h % AN [6] | pH 7 Stability 24 h % AN [7] | Sol pH 7 [8] | half-life at 2 µM [9]
N#C[C@@]1(c2ccc3c(N)ncnn23)O[C@H](COC(=O)OC2CCOC2)[C@@H](O)[C@H]1O (stereo partly drawn) [Compound 11, ((2R,3S,4R,5R)-5-(4-aminopyrrolo[2,1-f][1,2,4]triazin-7-yl)-5-cyano-3,4-dihydroxytetrahydrofuran-2-yl)methyl (tetrahydrofuran-3-yl) carbonate] | 4.94 µM | 2.92 µM | 20.6 µM | 135.19 | ≥ 789 min | > 50 µM |  |  |  |  |  | 
CC(C)COC(=O)OC[C@H]1O[C@@](C#N)(c2ccc3c(N)ncnn23)[C@H](OC(=O)C(C)C)[C@@H]1OC(=O)C(C)C [Compound 16, (2R,3R,4R,5R)-2-(4-aminopyrrolo[2,1-f][1,2,4]triazin-7-yl)-2-cyano-5-(((isobutoxycarbonyl)oxy)methyl)tetrahydrofuran-3,4-diyl bis(2-methylpropanoate)] | 1.15 µM | 0.981 µM | 2.57 µM | 30.6 | 1.01 min | 27.8 µM |  |  |  |  |  | 
CC(C)OC(=O)OC[C@H]1O[C@@](C#N)(c2ccc3c(N)ncnn23)[C@H](OC(=O)OC(C)C)[C@@H]1OC(=O)OC(C)C [Compound 81, (2R,3R,4R,5R)-2-(4-aminopyrrolo[2,1-f][1,2,4]triazin-7-yl)-2-cyano-5-(((isopropoxycarbonyl)oxy)methyl)tetrahydrofuran-3,4-diyl diisopropyl bis(carbonate)] |  | 0.996 µM | 24.4 µM | 195.87 |  | 48.3 µM | 7.77 | 14.74 | 100 % AN | 98 % AN | 0.06 | 0.688 min
CC(C)(OC(=O)OC[C@H]1O[C@@](C#N)(c2ccc3c(N)ncnn23)[C@H](O)[C@@H]1O)C(F)F [Compound 76, ((2R,3S,4R,5R)-5-(4-aminopyrrolo[2,1-f][1,2,4]triazin-7-yl)-5-cyano-3,4-dihydroxytetrahydrofuran-2-yl)methyl (1,1-difluoro-2-methylpropan-2-yl) carbonate] |  | 3.4 µM | > 50 µM | 1584 |  | > 50 µM | 2.13 | 12.17 | 92 % AN | 91 % AN | 0.37 | 38.9 min
CCOC(=O)C(C)(C)OC(=O)OC[C@H]1O[C@@](C#N)(c2ccc3c(N)ncnn23)[C@H](O)[C@@H]1O [Compound 77, Ethyl 2-(((((2R,3S,4R,5R)-5-(4-aminopyrrolo[2,1-f][1,2,4]triazin-7-yl)-5-cyano-3,4-dihydroxytetrahydrofuran-2-yl)methoxy)carbonyl)oxy)-2-methyl propanoate] |  | ≥ 50 µM | > 50 µM | 383.67 |  | > 50 µM | 0.27 | 5.58 | 98 % AN | 95 % AN | 4.64 | 792 min
CCC1O[C@H]2[C@@H](O1)[C@](C#N)(c1ccc3c(N)ncnn13)O[C@@H]2COC(=O)OC(C)C (stereo partly drawn) [Compound 133, ((3aR,4R,6R,6aR)-6-(4-aminopyrrolo[2,1-f][1,2,4]triazin-7-yl)-6-cyano-2-ethyltetrahydrofuro[3,4-d][1,3]dioxol-4-yl)methyl isopropyl carbonate] |  | > 50 µM | > 50 µM | 73.357 |  | > 50 µM | 17.25 | 16.82 | 95 % AN | 98 % AN | 0.24 | 0.623 min
CCOC(=O)OC[C@H]1O[C@@](C#N)(c2ccc3c(N)ncnn23)[C@H](OC(=O)OCC)[C@@H]1OC(=O)OCC [Compound 106, (2R,3R,4R,5R)-2-(4-aminopyrrolo[2,1-f][1,2,4]triazin-7-yl)-2-cyano-5-(((ethoxycarbonyl)oxy)methyl)tetrahydrofuran-3,4-diyl diethyl bis(carbonate)] |  | 1.4 µM | 4.56 µM | 30.917 |  | > 50 µM | 4.975 | 9.5 | 100 % AN | 91 % AN | 0.08 | 0.66 min
